“Also recorded” adds a separate entry of the source.
Experiments:
[1] = molecular target: T1, BACE cleavage of the P5-P5′ substrate (Homo sapiens, UniProt P56817); test: ASBI assay b): P5-P5′ fluorescence substrate cleavage assay; assay type: biochemical; settings: flavonoids at 100 uM
T1 construct: purchased Sigma-Aldrich (kit); R&D (HTS description) CS0010; 931-AS-050
Experimental: As illustrated in the Examples, in one embodiment, an MBP-C125 APP695 wt fusion protein can be used as one of the substrates. The second substrate can be the commercially available P5-P5′ fluorescence substrate. Each of these substrates is incubated with recombinant BACE (R&D (cat#931-AS-050) in, for example, a 96 well plate format. For the MBP-C125 substrate the C-99 product from the BACE cleavage can be measured using an AlphaLisa assay as a readout. For the P5-5′ substrate the […] upon BACE cleavage can be used as the readout. An ASBI would inhibit the BACE cleavage of the MBP-C125 substrate while not being inhibitory of the fluorescence substrate. […]
A primary high-throughput screening (HTS) assay was set up for identification of ASBIs using a dual-substrate testing paradigm (FIGS. 3A & 3B). The previously reported (Sinha et al. (1999) Nature, 402: 537-540) BACE substrate the MBP-C125 APP695 wt fusion protein consisting of maltose binding protein fused to the carboxyterminal 125 amino acids of wild type APP, was used as the primary substrate; and the commercially available P5-P5′ fluorescence substrate, derived from the P5-P5′ residues of the BACE cleavage site of APP, was used as the secondary substrate. […]

[2] = tested on: APP-Gal4 transactivation in HEK293T cells; test: APP-Gal4/Mint3/TAZ transactivation assay; assay type: cell-based; settings: Mint3 and TAZ present, galangin at 10 μM
Source text: (§1) FIGS. 7A and 7B illustrate inhibition of APP-Gal4 and APLP2-Gal4 transactivation by galangin. […] This transactivation was inhibited by Galangin and BACE inhibitor IV. FIG. 7B: Potent transactivation of transcription was also achieved with APLP2 fused to the Gal4 DNA binding domain when both Mint3 and TAZ were present. This transactivation was inhibited by Galangin and BACE inhibitor IV. […] The normalized luciferase activity is expressed as a percentage of the DMSO treated control (FIGS. 7A, 7B). Error bars indicate SEM. (*, p<0.05; **, p<0.01; ***, p<0.001; n=3, student t test).
(§2) This assay system is described by Orcholski et al. (2011) J. Alzheimers Dis., 23(4):689-699. Transactivation is achieved upon transfection with Mint3 and Taz. The ASBI was expected to inhibit only the transactivation of APP-Gal4, not that of APLP2-Gal4. For these experiments cells were co-transfected with a Gal4-luciferase reporter plasmid (to measure transactivation), a beta-galactosidase plasmid (to normalize for transfection efficiency), and the test plasmids identified. The normalized luciferase activity was expressed as fold induction over transcription by APP-Gal4 alone (FIG. 7A), or as fold induction over APLP2-Gal4 alone (FIG. 7B).
(§3) HEK293T cells were co-transfected with five plasmids: (1) pG5E1B-luc, 0.3 μg; (2) pCMV-LacZ, 0.1 μg; (3) pMst-APP (APP-Gal4) or pcDNA3.1-APLP2-Gal4, 0.3 μg; (4) pCMV5-Mint3, 1.0 μg; (5) pEF-N-FLAG-TAZ, 1.0 μg. Cells were harvested 48 hr after transfection in 0.2 ml per well Cell Culture Lysis Buffer (Promega), and their luciferase and β-galactosidase activities were determined with the Promega luciferase assay kit and the Promega β-galactosidase assay kit, respectively. The luciferase activity was standardized by the β-galactosidase activity to control for transfection efficiency and general effects on transcription. Transfections were performed at 80-90% cofluency in six-well plates using Lipofectamine 2000 (Invitrogen).

[3] = tested on: APLP2-Gal4 transactivation in HEK293T cells; test: APLP2-Gal4/Mint3/TAZ transactivation assay; assay type: cell-based; settings: Mint3 and TAZ present, galangin at 10 μM
Source text: as §1, §2, §3

[4] = tested on: Aβ1-40 and Aβ1-42 levels in hippocampal/entorhinal cortical tissue; test: Pilot efficacy testing in PDAPP (J20) AD model mice, Aβ ELISA; assay type: in vivo; settings: 40 mpk sc daily for 14 days, hippocampus and cortex
Experimental: Galangin and progalangin (PG-1) were dissolved in 10% solutol/15% DMSO/75% polyethylene glycol (PEG). Stock solutions were prepared at 10 mg/ml for each compound and 100 ul was injected subcutaneously daily for 14 days at a dose of 40 mkd. There were 5 PDAPP AD model J20 mice in both the galangin and progalangin groups, and 9 vehicle-only treated J20 controls. Mice were anesthetized, blood collected for plasma, and brain tissue collected as described above 2 hours after injection on the last day of treatment. The right hemibrain was further microdissected to isolate hippocampus and entorhinal cortex and this combined tissue was used for biochemical analysis. The remaining tissue and plasma was sent to IAS for compound level analysis.
Aβ1-42 and Aβ1-40 levels were determined using the hippocampal/entorhinal cortical tissue. Briefly, frozen tissue samples were weighed, and a 20% w/v sonicate prepared in 5M guandine-HCl/50 mM Tris, pH8. Sonication was performed with sample tubes in ice water, 4×5 seconds at 60 Hz, then 3×5 seconds at 80 Hz. Samples were then rotated at room temperature for 3 hours and frozen at −20° C. until assay. Invitrogen ELISA kits were used for Aβ1-40 and Aβ1-42 according to the manufacturer's instructions.

[5] = molecular target: acetylcholine esterase (AChE) (Homo sapiens, UniProt P22303); settings: Guo et al. (2010); cited from earlier work
autophagy = settings: Wen et al. (2012); cited from earlier work

T1 sequence (P56817 46-501): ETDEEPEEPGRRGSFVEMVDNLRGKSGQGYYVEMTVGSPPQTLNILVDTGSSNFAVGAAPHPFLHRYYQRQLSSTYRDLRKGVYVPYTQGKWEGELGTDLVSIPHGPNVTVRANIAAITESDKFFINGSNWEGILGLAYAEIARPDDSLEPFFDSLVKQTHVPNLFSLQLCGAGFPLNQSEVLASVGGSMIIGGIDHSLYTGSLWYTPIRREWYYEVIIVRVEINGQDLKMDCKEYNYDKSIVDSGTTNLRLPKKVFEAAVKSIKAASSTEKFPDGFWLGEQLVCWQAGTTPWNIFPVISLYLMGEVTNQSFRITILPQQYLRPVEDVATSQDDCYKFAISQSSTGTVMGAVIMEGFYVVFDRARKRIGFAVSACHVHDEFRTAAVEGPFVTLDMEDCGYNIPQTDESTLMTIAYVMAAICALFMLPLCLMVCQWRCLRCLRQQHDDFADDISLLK
Chain of acetylcholine esterase (AChE) (P22303 32-614): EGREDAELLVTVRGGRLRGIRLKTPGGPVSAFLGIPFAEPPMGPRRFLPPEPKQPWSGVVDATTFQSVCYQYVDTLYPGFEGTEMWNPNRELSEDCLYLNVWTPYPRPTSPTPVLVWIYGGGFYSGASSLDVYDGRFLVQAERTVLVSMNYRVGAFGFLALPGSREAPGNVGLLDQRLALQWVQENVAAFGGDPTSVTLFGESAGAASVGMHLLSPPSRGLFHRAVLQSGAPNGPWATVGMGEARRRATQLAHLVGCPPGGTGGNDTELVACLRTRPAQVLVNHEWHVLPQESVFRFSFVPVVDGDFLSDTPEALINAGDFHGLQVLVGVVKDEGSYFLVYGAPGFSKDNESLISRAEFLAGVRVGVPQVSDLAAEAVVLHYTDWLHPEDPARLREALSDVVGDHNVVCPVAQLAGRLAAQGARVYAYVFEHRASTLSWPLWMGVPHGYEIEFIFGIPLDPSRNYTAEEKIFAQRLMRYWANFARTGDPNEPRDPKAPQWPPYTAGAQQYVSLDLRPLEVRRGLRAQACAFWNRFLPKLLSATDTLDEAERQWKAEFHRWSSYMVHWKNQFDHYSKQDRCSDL

Compound: O=c1c(O)c(-c2ccccc2)oc2cc(O)cc(O)c12 [Galangin]
- inhibition of BACE cleavage of the P5-P5′ substrate [1]: showing no inhibition of the P5-P5′ substrate
- APP-Gal4 transactivation [2]: inhibited
- APP-Gal4 transactivation ([2]; listed as galangin): inhibit; also recorded: inhibits APP-Gal4 and APLP2-Gal4
- APLP2-Gal4 transactivation [3]: inhibited
- APLP2-Gal4 transactivation ([3]; listed as galangin): inhibit; also recorded: inhibits APP-Gal4 and APLP2-Gal4
- Aβ1-42 (Aβ42) levels in brain [4]: unchanged
- Aβ1-40 (Aβ40) levels in brain ([4]; 40 mg/kg): some reduction of Aβ40; also recorded: slightly lower
- inhibitor of acetylcholine esterase (AChE) [5]: inhibitor of acetylcholine esterase (AChE)
- induction of autophagy (autophagy): induce autophagy

— patent USRE49873E1, “APP specific bace inhibitors (ASBIs) and uses thereof” (BUCK INSTITUTE FOR RESEARCH ON AGING, priority 2012, dated 2024)
